Target: T1, human TLR7 (Homo sapiens, UniProt Q9NYK1)
T1 sequence (Q9NYK1 27-1049): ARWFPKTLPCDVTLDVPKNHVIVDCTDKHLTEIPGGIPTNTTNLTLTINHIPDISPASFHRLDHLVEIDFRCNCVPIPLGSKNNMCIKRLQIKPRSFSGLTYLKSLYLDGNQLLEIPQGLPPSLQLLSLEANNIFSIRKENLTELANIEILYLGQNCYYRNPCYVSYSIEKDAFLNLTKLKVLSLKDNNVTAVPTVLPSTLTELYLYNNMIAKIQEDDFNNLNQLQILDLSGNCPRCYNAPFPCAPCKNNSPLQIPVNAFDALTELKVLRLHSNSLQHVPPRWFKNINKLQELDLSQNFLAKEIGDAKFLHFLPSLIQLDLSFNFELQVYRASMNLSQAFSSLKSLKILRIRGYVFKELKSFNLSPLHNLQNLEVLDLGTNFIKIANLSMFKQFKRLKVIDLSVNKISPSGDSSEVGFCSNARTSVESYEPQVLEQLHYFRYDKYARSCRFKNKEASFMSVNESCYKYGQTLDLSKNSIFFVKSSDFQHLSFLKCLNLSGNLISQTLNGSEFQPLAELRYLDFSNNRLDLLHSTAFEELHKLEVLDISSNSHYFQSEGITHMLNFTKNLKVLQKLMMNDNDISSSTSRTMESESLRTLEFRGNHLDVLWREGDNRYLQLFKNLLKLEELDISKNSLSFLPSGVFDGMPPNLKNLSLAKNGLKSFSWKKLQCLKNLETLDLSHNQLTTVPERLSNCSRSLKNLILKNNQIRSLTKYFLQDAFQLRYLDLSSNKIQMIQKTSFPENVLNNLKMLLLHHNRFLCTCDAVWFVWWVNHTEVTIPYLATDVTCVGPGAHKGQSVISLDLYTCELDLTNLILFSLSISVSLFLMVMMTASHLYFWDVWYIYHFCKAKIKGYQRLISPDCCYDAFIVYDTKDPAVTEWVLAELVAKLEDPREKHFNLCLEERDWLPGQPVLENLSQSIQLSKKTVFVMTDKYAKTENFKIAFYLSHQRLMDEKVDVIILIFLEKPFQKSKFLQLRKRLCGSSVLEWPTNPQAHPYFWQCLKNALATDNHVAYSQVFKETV
Assay: HEK293-Blue-hTLR-7 cells assay (SEAP reporter, R848 stimulation)
Type: cell-based
Conditions: HEK293-Blue-hTLR-7 cells, R848 ligand, 20 hrs incubation; read-out: TLR7 IC50
Protocol: The following tests were carried out in order to determine the activity of the compounds of formula (I) in HEK293-Blue-hTLR-7/8/9 cells assay.
HEK293-Blue-hTLR-7 Cells Assay:
A stable HEK293-Blue-hTLR-7 cell line was purchased from InvivoGen (Cat. #: hkb-htlr7, San Diego, California, USA). These cells were originally designed for studying the stimulation of human TLR7 by monitoring the activation of NF-κB. A SEAP (secreted embryonic alkaline phosphatase) reporter gene was placed under the control of the IFN-β minimal promoter fused to five NF-κB and AP-1-binding sites. The SEAP was induced by activating NF-κB and AP-1 via stimulating HEK-Blue hTLR7 cells with TLR7 ligands. Therefore the reporter expression was declined by TLR7 antagonist under the stimulation of a ligand, such as R848 (Resiquimod), for incubation of 20 hrs. The cell culture supernatant SEAP reporter activity was determined using QUANTI-Blue™ kit (Cat. #: rep-qb1, Invivogen, San Diego, Ca, USA) at a wavelength of 640 nm, a detection medium that turns purple or blue in the presence of alkaline phosphatase.
HEK293-Blue-hTLR7 cells were incubated at a density of 250,000˜450,000 cells/mL in a volume of 170 μL in a 96-well plate in Dulbecco's Modified Eagle's medium (DMEM) containing 4.5 g/L glucose, 50 U/mL penicillin, […], […], 2 mM L-glutamine, 10% (v/v) heat-inactivated fetal bovine serum with addition of 20 μL test compound in a serial dilution in the presence of final DMSO at 1% and 10 μL of 20 uM R848 in above DMEM, perform incubation under 37° C. in a CO2 incubator for 20 hrs. Then 20 μL of the supernatant from each well was incubated with 180 μL Quanti-blue substrate solution at 37° C. for 2 hrs and the absorbance was read at 620˜655 nm using a spectrophotometer. The signalling pathway that TLR7 activation leads to downstream NF-κB activation has been widely accepted, and therefore similar reporter assay was modified for evaluating TLR7 antagonist.

Row | SMILES | IC50 [nM]
1 | C[C@@H]1CN(c2ccc(C#N)n3nccc23)C[C@H](C(=O)NC2CC3CCC2CN3C)O1 (stereo partly drawn) [Example 34, (2R,6R)-4-(7-cyanopyrazolo[1,5-a]pyridin-4-yl)-6-methyl-N-(2-methyl-2-azabicyclo[2.2.2]octan-5-yl)morpholine-2-carboxamide] | 10
2 | C[C@@H]1CN(c2ccc(C#N)n3nccc23)C[C@H](C(=O)NC2C3CNCC2COC3)O1 (stereo partly drawn) [Example 27, (2R,6R)-4-(7-cyanopyrazolo[1,5-a]pyridin-4-yl)-6-methyl-N-(3-oxa-7-azabicyclo[3.3.1]nonan-9-yl)morpholine-2-carboxamide] | 63
3 | C[C@@H]1CN(c2ccc(C#N)n3nccc23)C[C@H](C(=O)NC23CC4CC(CC(C4)C2)C3)O1 [Example 12, (2R,6R)-N-(1-adamantyl)-4-(7-cyanopyrazolo[1,5-a]pyridin-4-yl)-6-methyl-morpholine-2-carboxamide] | 210
4 | C[C@@H]1CN(c2ccc(C#N)n3nccc23)C[C@H](C(=O)NC2(C)CCNCC2)O1 [Example 19, (2R,6R)-4-(7-cyanopyrazolo[1,5-a]pyridin-4-yl)-6-methyl-N-(4-methyl-4-piperidyl)morpholine-2-carboxamide] | 99
5 | C[C@@H]1CN(c2ccc(C#N)n3nccc23)C[C@H](C(=O)NC2CC3CCCC(C2)N3)O1 (stereo partly drawn) [Example 14, (2R,6R)-N-(9-azabicyclo[3.3.1]nonan-3-yl)-4-(7-cyanopyrazolo[1,5-a]pyridin-4-yl)-6-methyl-morpholine-2-carboxamide] | 7
6 | C[C@@H]1CN(c2ccc(C#N)n3nccc23)C[C@H](C(=O)NC2CC3CC2CN3)O1 (stereo partly drawn) [Example 36, (2R,6R)-N-(2-azabicyclo[2.2.1]heptan-5-yl)-4-(7-cyanopyrazolo[1,5-a]pyridin-4-yl)-6-methyl-morpholine-2-carboxamide] | 130
7 | C[C@@H]1CN(c2ccc(C#N)n3nccc23)C[C@H](C(=O)N[C@H]2CC[C@H](O)CC2)O1 [Example 21, Trans-(2R,6R)-4-(7-cyanopyrazolo[1,5-a]pyridin-4-yl)-N-(4-hydroxycyclohexyl)-6-methyl-morpholine-2-carboxamide] | 420
8 | C[C@@H]1CN(c2ccc(C#N)n3nccc23)C[C@H](C(=O)NC2CCN(C)CC2)O1 [Example 1, (2R,6R)-4-(7-cyanopyrazolo[1,5-a]pyridin-4-yl)-6-methyl-N-(1-methyl-4-piperidyl)morpholine-2-carboxamide] | 17
9 | CCC(O)CNC(=O)[C@H]1CN(c2ccc(C#N)n3nccc23)C[C@@H](C)O1 (stereo partly drawn) [Example 13, (2R,6R)-4-(7-cyanopyrazolo[1,5-a]pyridin-4-yl)-N-(2-hydroxybutyl)-6-methyl-morpholine-2-carboxamide] | 490
10 | CCC(C)(C)NC(=O)[C@H]1CN(c2ccc(C#N)n3nccc23)C[C@@H](C)O1 [Example 17, (2R,6R)-4-(7-cyanopyrazolo[1,5-a]pyridin-4-yl)-N-(1,1-dimethylpropyl)-6-methyl-morpholine-2-carboxamide] | 360
11 | C[C@@H]1CN(c2ccc(C#N)n3nccc23)C[C@H](C(=O)N[C@H]2CC[C@@H](O)CC2)O1 [Example 20, Cis-(2R,6R)-4-(7-cyanopyrazolo[1,5-a]pyridin-4-yl)-N-(4-hydroxycyclohexyl)-6-methyl-morpholine-2-carboxamide] | 350
12 | C[C@@H]1CN(c2ccc(C#N)n3nccc23)C[C@H](C(=O)NC(C)(C)CO)O1 [Example 16, (2R,6R)-4-(7-cyanopyrazolo[1,5-a]pyridin-4-yl)-N-(2-hydroxy-1,1-dimethyl-ethyl)-6-methyl-morpholine-2-carboxamide] | 460

Continued, values first:

Row | IC50 [nM] | SMILES
13 | 64 | C[C@H]1C[C@@H](NC(=O)[C@H](C)N)CN(c2ccc(C#N)n3nccc23)C1 [Example 44, (2S)-2-amino-N-[(3R,5S)-1-(7-cyanopyrazolo[1,5-a]pyridin-4-yl)-5-methyl-3-piperidyl]propanamide]
14 | 34 | C[C@H]1C[C@@H](N)CN(c2ccc(C#N)n3nccc23)C1 [Example 43, 4-[(3R,5S)-3-amino-5-methyl-1-piperidyl]pyrazolo[1,5-a]pyridine-7-carbonitrile]
15 | 28 | C[C@@H]1CN(c2ccc(Cl)n3nccc23)C[C@H](C(=O)NC2CCN(C)CC2)O1 [Example 38, (2R,6R)-4-(7-chloropyrazolo[1,5-a]pyridin-4-yl)-6-methyl-N-(1-methyl-4-piperidyl)morpholine-2-carboxamide]
16 | 46 | C[C@@H]1CN(c2ccc(C#N)n3nccc23)C[C@H](C(=O)NC(C)(C)CN)O1 [Example 41, (2R,6R)-N-(2-amino-1,1-dimethyl-ethyl)-4-(7-cyanopyrazolo[1,5-a]pyridin-4-yl)-6-methyl-morpholine-2-carboxamide]
17 | 9 | C[C@@H]1CN(c2ccc(C#N)n3nccc23)C[C@H](C(=O)NC2C3CCCC2CNC3)O1 (stereo partly drawn) [Example 37, (2R,6R)-N-(3-azabicyclo[3.3.1]nonan-9-yl)-4-(7-cyanopyrazolo[1,5-a]pyridin-4-yl)-6-methyl-morpholine-2-carboxamide]
18 | 8 | C[C@@H]1CN(c2ccc(C#N)n3ncc(F)c23)C[C@H](C(=O)NC2CCN(C)CC2)O1 [Example 47, (2R,6R)-4-(7-cyano-3-fluoro-pyrazolo[1,5-a]pyridin-4-yl)-6-methyl-N-(1-methyl-4-piperidyl)morpholine-2-carboxamide]
